Test results published in US8877748B2, “Heterocyclic fused anthraquinone derivatives, manufacturing method and pharmaceutical composition using thereof” (National Defense Medical Center, priority 2012, dated 2014).
Read-outs that look alike come from different tables or passages of the source.

Tested on: PC-3 prostate cancer cell line
Experiment: SRB assay cell viability, PC-3 prostate cancer cell line
Type: cell-based, human
[1] = Homo sapiens, PC-3 prostate cancer cell line, Table II prints no unit, μM printed, read-out: SRB assay: 50% inhibition of cancer cell proliferation of sample concentration (IC50) of PC-3 prostate cancer cell line
[2] = PC-3 prostate cancer cell line, Table II prints no unit, μM printed, read-out: SRB assay: 50% inhibition of cancer cell proliferation of sample concentration (IC50) of PC-3 prostate cancer cell line

For `COc1ccccc1Sc1cc2c(c3nsnc13)C(=O)c1ccccc1C2=O` [C23, 4-(2-methoxy-phenyl-thio)anthra[2,1-c] [1,2,5]thiadiazol-6,11-dione], the IC50 [1] was > 15 µM.
With `O=C1c2ccccc2C(=O)c2c1cc(Nc1cccc(Cl)c1)c1nsnc21` [C63, 4-(3-chloro-phenylamino)anthra[2,1-c] [1,2,5]thiadiazol-6,11-dione] the IC50 [1] was 2.28 µM.
“4-(4-nitrophenyl thio)anthra[2,1-c][1,2,5] thiadiazol oxazole-6,11-dione [C45]” showed an IC50 [2] of 8.38 µM.
In the case of `CCc1ccccc1Sc1cc2c(c3nsnc13)C(=O)c1ccccc1C2=O` [C51, 4-(2-ethyl-phenylthio)anthra[2,1-c][1,2,5] thiadiazol-6,11-dione], the IC50 [1] is reported as > 15 µM.
`O=C1c2ccccc2C(=O)c2c1cc(Sc1ccc(Br)cc1)c1nsnc21` [C24, 4-(4-bromo-phenyl-thio)anthra[2,1-c] [1,2,5]thiadiazol-6,11-dione] was tested, and the IC50 [1] was > 15 µM.
For `CCN1CCN(c2cc3c(c4nsnc24)C(=O)c2ccccc2C3=O)CC1` [C9, 4-(4-ethyl-piperazin-1-yl)anthra[2,1-c] [1,2,5]thiadiazol-6,11-dione], the IC50 [1] was 9.43 µM.
In the case of “4-(2-mercapto-phenyl-thio)anthra[2,1-c] [1,2,5]thiadiazol oxazole-6,11-dione [C36]”, the IC50 [2] is reported as > 15 µM.
`CCCSc1cc2c(c3nsnc13)C(=O)c1ccccc1C2=O` [C17, 4-(n-propylthio)-anthra[2,1-c][1,2,5] thiadiazol-6,11-dione] gave an IC50 [1] of 3.69 µM.
`O=C1c2ccccc2C(=O)c2c1cc(Sc1cc(Cl)c(Cl)cc1Cl)c1nsnc21` [C34, 4-(2,4,5-trichloro-phenylthio)anthra[2,1-C] [1,2,5]thiadiazol-6,11-dione] was tested, and the IC50 [1] was > 15 µM.
`Cc1cccc(Nc2cc3c(c4nsnc24)C(=O)c2ccccc2C3=O)c1` [C62, 4-(m-tolylamino)anthra[2,1-c][1,2,5] thiadiazol-6,11-dione] showed an IC50 [1] of 0.29 µM.
Compound `O=C1c2ccccc2C(=O)c2c1cc(N1CCCCC1)c1nsnc21` [C11, 4-(piperidine-1-yl)anthra[2,1-c][1,2,5] thiadiazol-6,11-dione] has an IC50 [1] of 1.38 µM.
In the case of `CC(C)c1ccccc1Sc1cc2c(c3nsnc13)C(=O)c1ccccc1C2=O` [C52, 4-(2-isopropyl-phenyl-thio)anthra[2,1-c] [1,2,5]thiadiazol-6,11-dione], the IC50 [1] is reported as > 15 µM.
`O=C1c2ccccc2C(=O)c2c1cc(SCc1ccccc1Cl)c1nsnc21` [C53, 4-(2-chloro-benzylthio)anthra[2,1-C] [1,2,5]thiadiazol-6,11-dione] showed an IC50 [1] of 5.84 µM.
In the case of `CCNc1cc2c(c3nsnc13)C(=O)c1ccccc1C2=O` [C13, 4-ethylamino anthra[2,1-c][1,2,5] thiadiazol-6,11-dione], the IC50 [1] is reported as 2.97 µM.
With `CC(C)(C)c1ccc(Sc2cc3c(c4nsnc24)C(=O)c2ccccc2C3=O)cc1` [C31, 4-(4-tert-butyl-alkylphenyl-thio)anthra [2,1-c][1,2,5]thiadiazol-6,11-dione] the IC50 [2] was > 15 µM.
For “4-(2-fluoro-phenyl thio)anthra[2,1-c] [1,2,5]thiadiazol oxazole-6,11-dione [C33]”, the IC50 [2] was > 15 µM and the IC50 (PC-3 prostate cancer cells, read-out: IC50 in PC-3 prostate cancer cells (cell viability analysis)) was 5.48 µM.
Compound `O=C1c2ccccc2C(=O)c2c1cc(Sc1cccc(F)c1)c1nsnc21` [C38, 4-(3-fluorophenylthio)anthra[2,1-c][1,2,5] thiadiazol-6,11-dione] has an IC50 [1] of 8.82 µM.
`CCCNc1cc2c(c3nsnc13)C(=O)c1ccccc1C2=O` [C6, 4-(propylamino)anthra-[2,1-c][1,2,5] thiadiazol-6,11-dione] showed an IC50 [1] of 3.25 µM.
Compound `O=C1c2ccccc2C(=O)c2c1cc(Sc1cccc(Cl)c1Cl)c1nsnc21` [C30, 4-(2,3-dichloro-phenylthio)anthra[2,1-c] [1,2,5]thiadiazol oxazole-6,11-dione] has an IC50 [2] of 11 µM.
“4-(4-ethyl-phenyl-thio)anthra[2,1-c][1,2,5] thiadiazol oxazole-6,11-dione [C54]” was tested, and the IC50 [2] was 7.5 µM.
Work on `O=C1c2ccccc2C(=O)c2c1cc(O)c1nsnc21` [C4, Potassium 6,11-dioxo-6,11-dihydroanthra[2,1-c][1,2,5]thiadiazol-4-olate] yielded an IC50 [1] of 18.5 µM.
